Counter-ions that a name gives are not always drawn. Like-named read-outs stand apart in the source and are kept apart here.
Key:
[1] = from reference 15; cited from earlier work
[2] = stability of stock solution in DMSO; type: physicochemical; settings: long-term storage of stock solution
[3] = conversion of ester 3 in complete cell culture media (DMEM with 10% FBS), HPLC; type: in vitro ADME; settings: 37° C.
Description: With the desired compound 3 in hand, we first investigated the possibility of transformation of 3 into 666-15 in the complete cell culture media (Dulbecco's Modified Eagle Medium with 10% fetal bovine serum (FBS)). […] In stark contrast to the structural congener 2,^15 only a small amount of 666-15 was generated under the reaction condition. In order to investigate if simple ester hydrolysis was occurring to generate products 9 and 10 (FIG. 2A), we compared the main peaks eluted at 10.5 min and 11.2 min with standard samples of 9 and 10 by HPLC.
Compound 3 (200 μM) was incubated with complete tissue culture media (DMEM with 10% FBS) at 37° C. for various time periods. An aliquot of 10 μl was taken at a given time point and mixed with acetonitrile (90 μL). The mixture was centrifuged at 14,000×rpm for 5 min at room temperature in a tabletop centrifuge to precipitate proteins. The supernatant was collected and analyzed by HPLC eluting with a linear of water and acetonitrile, both of which contained 0.1% TFA.

[4] = tested on: CREB-mediated gene transcription; experiment: CREB transcription renilla luciferase reporter assay in HEK 293T cells; type: cell-based; settings: for IC50: Homo sapiens; for effect of combination with 666-15 on inhibition of CREB-mediated gene transcription: compound combined with 666-15; for combination index (CI) in inhibiting CREB-mediated gene transcription: Chou-Talalay
Description: ^a The IC50 refers to the concentration needed to inhibit 50% of the CREB-mediated gene transcription in HEK 293T cells using a transcription renilla luciferase reporter assay. The data are presented as mean±standard deviation (SD) of at least two independent experiments, which were performed in triplicates.
To test this possibility, we employed a transcription luciferase reporter assay in HEK 293T cells.^22 Briefly, the cells were transfected with a CREB renilla luciferase reporter plasmid (CRE-RLuc). This plasmid expresses renilla luciferase under the control of three tandem copies of CRE in the promoter region.
Inhibition of CREB-mediated gene transcription. HEK 293T cells were transfected with CRE-RLuc. Then the cells were treated with increasing concentrations of individual compounds (FIG. 2A) or drug combinations (FIG. 2B) for 30 min before the addition of Fsk (10 μM) for 5 h. The renilla luciferase activity was normalized to the protein concentration in each well and expressed as relative luciferase unit (RLU)/μg protein. The errors are SEM from one representative experiment in triplicate.
HEK293T cells in a well of 6-well plate were transfected with a plasmid (1 μg) encoding renilla luciferase under the control of three copies of CRE (pCRE-RLuc) using Lipofectamin^2000 (Life Technologies) for 3 h. Then the cells were replated into a 96-well plate and the cells were allowed to attach to the bottom of the plate for overnight. The cells were treated with different concentrations of the compounds for 30 min, when Fsk (10 μM) was added to the cells. The cells were further incubated for 5 h at 37° C. The media were removed and the cells were lysed in 30 μl 1× renilla luciferase lysis buffer (Promega) and the renilla luciferase activity was measured using the renilla luciferase assay system (Promega). The protein concentration in each well was determined using the Protein Assay Dye Reagent Concentrate (Bio-rad). The luciferase activity in each well was normalized to the protein concentration and expressed as relative luciferase unit (RLU)/μg protein. The IC50 was calculated in Prism 5.0 using the non-linear regression analysis.

[5] = aqueous solubility in ddH2O; type: physicochemical; settings: water
Excerpt: Furthermore, we discovered a novel compound that can potentiate 666-15's inhibitory effect against CREB-mediated gene transcription in living cells.
The synthesis of compound 3 is presented in Scheme 1. […] Under the coupling conditions we used before (BOP, DIPEA, room temperature),^13 a mixture of compositional isomers 6 and 7 (2-(3-(3-((tert-butoxycarbonyl)amino)propoxy)-2-naphthamido)-5-chlorophenyl 3-(2-((tert-butoxy carbonyl)amino)ethoxy)-2-naphthoate) involving acyl group swapping was obtained. These two isomers were only partially separable by conventional silica gel column chromatograph. […] The formation of the unanticipated alternative ester 7 was likely a result of generation of imide intermediate 8 (2-(3-(2-((tert-butoxycarbonyl)amino)ethoxy)-2-naphthamido)-5-chloro-3-hydroxyphenyl 3-(3-((tert-butoxycarbonyl) amino)propoxy)-2-naphthoate) although it was not detected from the reaction mixture. The intermediate 8 could be generated either before the formation of 6 (2-(3-(2-((tert-butoxycarbonyl) amino)ethoxy)-2-naphthamido)-5-chlorophenyl 3-(3-((tert-butoxycarbonyl)amino) propoxy)-2-naphthoate) or after 6 was formed. Once 8 was produced, it could generate either 6 or 7 through an ester bond formation (Scheme 1). […] The Boc groups (tert-butyloxycarbonyl protecting groups) in 6 were then deprotected under acidic condition (HCl, DCM) to give 3 uneventfully. […]

[6] = molecular target: KIX-KID interaction (Homo sapiens, UniProt Q92793); experiment: split renilla luciferase complementation assay of KIX-KID interaction; type: cell-based
[7] = tested on: MDA-MB-231 cells; experiment: cell growth inhibition MTT assay; type: cell-based
Description: Then the viable cells were quantified by the MTT reagent. […] The data are presented as mean+SEM. The SEM was from one representative experiment performed in duplicates.
The cells were plated in 96-well plates at 1,000 cells/well and allowed to attach to the bottom of the plate for overnight. Then the cells were treated with different concentrations of compounds for 72 h at 37° C. At the end of treatment, the viable cells were determined by incubating cells with MTT reagent (0.5 mg/mL) in the complete tissue culture media for 3 h. Then the media were removed and the formed purple formazan was dissolved in DMSO for quantification by absorbance at 570 nm using a SpectraMax i3 plate reader (Molecular Devices). The percent of growth is defined as 100×(Atreated−Ainitial)/(Acontrol−Ainitial), where Atreated represents absorbance in wells treated with a compound, Ainitial represents the absorbance at time 0, and Acontrol denotes media-treated cells.

[8] = tested on: NR4A2; experiment: endogenous CREB target gene expression by qRT-PCR in HEK 293T cells; type: cell-based; settings: Fsk-stimulated HEK 293T cells
Description: Then the cells were subjected to qRT-PCR analysis after the total RNA was isolated using HPRT as a reference gene.
Then the cells were stimulated with Fsk (10 μM) for 45 min. The total RNA was isolated using NucleoSpin® RNA isolation kit (Takara Bio). Following RNA isolation, the first strand cDNA was synthesized using PrimeScript™ 1st strand cDNA synthesis kit (Takara Bio) with random hexamers as the primers. Quantitative PCR reactions were performed with TB Green® Advantage® qPCR Premix (Takara Bio). The relative mRNA level was determined with double delta Ct method using HPRT as a reference gene.

[9] = HEK 293T cells, CRE-RLuc reporter, Fsk stimulated, mean ± SD of at least two independent experiments, read-out: CREB inhibition (IC50)

KIX-KID interaction, sequence (Q92793 587-666 limits assumed): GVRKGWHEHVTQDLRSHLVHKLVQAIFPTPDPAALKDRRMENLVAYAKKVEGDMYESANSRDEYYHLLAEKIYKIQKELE

NCCCOc1cc2ccccc2cc1C(=O)Nc1ccc(Cl)cc1OC(=O)c1cc2ccccc2cc1OCCCN [Compound 2, 2-(3-(3-aminopropoxy)-2-naphthamido)-5-chlorophenyl 3-(3-aminopropoxy)-2-naphthoate]
aqueous solubility in ddH2O [1]: > 100 mg/mL

NCCCOc1cc2ccccc2cc1C(=O)Oc1cc(Cl)ccc1NC(=O)c1cc2ccccc2cc1OCCN [Compound 3, 2-(3-(2-Aminoethoxy)-2-naphthamido)-5-chlorophenyl 3-(3-Aminopropoxy)-2-naphthoate Dihydrochloride]
stability in DMSO [2]: unstable in DMSO for long-term storage | conversion in complete cell culture media [3]: rapidly converted into four new product peaks | IC50 ([4]; HEK-293T, read-out: CREB inhibition (IC50, μM)): 0.25 ± 0.11 µM | solubility [5]: > 100 mg/mL

NCCCOc1cc2ccccc2cc1C(=O)NCCOc1cc2ccccc2cc1C(=O)Nc1ccc(Cl)cc1O [Compound 666-15, 3-(3-aminopropoxy)-N-(2-((3-((4-chloro-2-hydroxyphenyl)carbamoyl)naphthalen-2-yl)oxy)ethyl)-2-naphthamide]
solubility [5]: < 0.5 mg/mL

O=C1NCCOc2cc3ccccc3cc21 [Compound 12, 3,4-dihydronaphtho[2,3-f][1,4]oxazepin-5(2H)-one]
melting point: 128 to 129 °C | CREB inhibition potency ([4]; HEK 293T cells, compound alone): inactive | effect of combination with 666-15 on inhibition of CREB-mediated gene transcription ([4]; HEK 293T cells): did not produce further inhibition of CREB-mediated gene transcription | IC50 [4, 9]: > 50 µM

NCCCOc1cc2ccccc2cc1C(=O)Oc1cc(Cl)ccc1NC(=O)c1cc2ccccc2cc1OCCN (as salt: hydrochloride) [Compound 3, 2-(3-(2-Aminoethoxy)-2-naphthamido)-5-chlorophenyl 3-(3-Aminopropoxy)-2-naphthoate Dihydrochloride]
melting point: 216 to 217 °C

NCCCOc1cc2ccccc2cc1C(=O)Nc1ccc(Cl)cc1O [Compound 11, 3-(3-aminopropoxy)-N-(4-chloro-2-hydroxyphenyl)-2-naphthamide]
IC50 [6]: > 50 µM | combination index (CI) of anti-proliferative effect ([7]; 11 (0.5 or 1.0 μM) combined with 666-15, 72 h): less than 1.0 | antiproliferative effect (cell growth) ([7]; 11 alone, 0.5 or 1.0 μM, 72 h): did not appreciably inhibit the cell growth | expression level of NR4A2 ([8]; 666-15 (50 nM) combined with compound 11 (5 μM)): significant inhibition of NR4A2 transcription was observed | expression level of NR4A2 ([8]; compound 11 alone, 5 μM): did not inhibit the expression of NR4A2 | combination index (CI) in inhibiting CREB-mediated gene transcription ([4]; 11 (5 μM) combined with 666-15 0.01 μM): 2.87 | combination index (CI) in inhibiting CREB-mediated gene transcription ([4]; 11 (5 μM) combined with 666-15 0.05 μM): 0.31 | combination index (CI) in inhibiting CREB-mediated gene transcription ([4]; 11 (5 μM) combined with 666-15 0.1 μM): 0.17 | combination index (CI) in inhibiting CREB-mediated gene transcription ([4]; 11 (5 μM) combined with 666-15 0.5 μM): 0.37 | combination index (CI) in inhibiting CREB-mediated gene transcription ([4]; 11 (5 μM) combined with 666-15 1.0 μM): 0.56 | combination index (CI) in inhibiting CREB-mediated gene transcription ([4]; 11 (5 μM) combined with 666-15 5.0 μM): 2.41 | effect of combination with 666-15 on inhibition of CREB-mediated gene transcription ([4]; HEK 293T cells): significantly potentiated activity of 666-15 | IC50 [4, 9]: 26.3 ± 13.6 µM
